Measured values reported in paper PMC9090415, “Discovery of small molecule inhibitors of Plasmodium falciparum apicoplast DNA polymerase” (Journal of Enzyme Inhibition and Medicinal Chemistry, 2022).

Target: P. falciparum apicoplast DNA polymerase (Pf-apPOL) (Plasmodium falciparum, UniProt Q8ILY1)
Experiment: Fluorescence-based high-throughput DNA polymerase assay (molecular beacon), primary screen and dose-response;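 as to % inhibition ApPOL 90': test concentration in µM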;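 as to % inhibition apPOL 180': test concentration in µM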
Format: biochemical
Outline: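 Single-point screening used 10 µM compound with 20 nM polymerase, 20 nM hairpin substrate and 6 µM dNTPs for 90 min at 25 °C. Confirmatory titrations (2.5–80 µM) followed fluorescence at three times, and IC50 was derived from a fit including a cooperativity term n.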

[1] = supplemental file 2, sheet IC50 nontoxic compounds; Pf-apPOL

Chain of P. falciparum apicoplast DNA polymerase (Pf-apPOL) (Q8ILY1 entry or part of it): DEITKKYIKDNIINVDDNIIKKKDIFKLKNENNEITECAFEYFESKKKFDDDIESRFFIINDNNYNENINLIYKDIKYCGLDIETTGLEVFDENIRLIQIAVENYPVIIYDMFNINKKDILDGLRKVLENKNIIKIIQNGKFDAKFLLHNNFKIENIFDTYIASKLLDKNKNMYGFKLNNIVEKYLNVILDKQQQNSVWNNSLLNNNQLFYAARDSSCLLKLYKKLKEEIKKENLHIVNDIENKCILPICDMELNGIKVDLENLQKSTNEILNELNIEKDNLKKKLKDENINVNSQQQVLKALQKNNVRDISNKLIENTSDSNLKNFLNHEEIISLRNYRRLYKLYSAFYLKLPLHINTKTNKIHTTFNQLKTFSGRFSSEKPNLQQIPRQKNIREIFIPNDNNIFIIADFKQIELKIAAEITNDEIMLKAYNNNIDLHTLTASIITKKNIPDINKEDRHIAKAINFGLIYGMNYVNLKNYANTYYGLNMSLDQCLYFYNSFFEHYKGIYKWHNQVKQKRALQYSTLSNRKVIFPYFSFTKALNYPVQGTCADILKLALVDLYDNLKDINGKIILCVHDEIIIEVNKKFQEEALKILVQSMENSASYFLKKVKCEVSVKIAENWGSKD

SMILES: CCN1C(=O)C(=Cc2cccc(OC)c2O)SC1=S [Molecule 78, CCN1C(=S)SC(=Cc2cccc(c2O)OC)C1=O]
- % inhibition Apo pol 10' (DRC-1; 10'; concentration 2.5): -5.558%
- % inhibition Apo pol 10' (DRC-1; 10'; concentration 5): -7.622%
- % inhibition Apo pol 10' (DRC-1; 10'; concentration 10): -2.049%
- % inhibition Apo pol 10' (DRC-1; 10'; concentration 20): 2.662%
- % inhibition Apo pol 10' (DRC-1; 10'; concentration 40): 14.6723%
- % inhibition Apo pol 10' (DRC-1; 10'; concentration 80): 44.8696%
- % inhibition Apol 90' (DRC-1; 90'; concentration 2.5): -2.637%
- % inhibition Apol 90' (DRC-1; 90'; concentration 5): -1.279%
- % inhibition Apol 90' (DRC-1; 90'; concentration 10): 7.892%
- % inhibition Apol 90' (DRC-1; 90'; concentration 20): 13.9946%
- % inhibition Apol 90' (DRC-1; 90'; concentration 40): 28.6027%
- % inhibition Apol 90' (DRC-1; 90'; concentration 80): 61.7186%
- % inhibition apPOL 180' (DRC-1; 180'; concentration 2.5): 5.183%
- % inhibition apPOL 180' (DRC-1; 180'; concentration 5): 11.9919%
- % inhibition apPOL 180' (DRC-1; 180'; concentration 10): 27.7441%
- % inhibition apPOL 180' (DRC-1; 180'; concentration 20): 33.831%
- % inhibition apPOL 180' (DRC-1; 180'; concentration 40): 51.4318%
- % inhibition apPOL 180' (DRC-1; 180'; concentration 80): 79.6969%
- % inhibition Apo pol 5' (DRC-2, 5', concentration 2.5 (unit not given)): 8%
- % inhibition ApPOL 90' (DRC-2, 90', concentration 20 (unit not given)): 8%
- % inhibition Apo pol 5' (DRC-2; 5'; concentration 2.5): 8%
- % inhibition Apo pol 5' (DRC-2; 5'; concentration 5): 3.24%
- % inhibition Apo pol 5' (DRC-2; 5'; concentration 10): 14%
- % inhibition Apo pol 5' (DRC-2; 5'; concentration 20): 21%
- % inhibition Apo pol 5' (DRC-2; 5'; concentration 40): 38%
- % inhibition Apo pol 5' (DRC-2; 5'; concentration 80): 40%
- % inhibition Apol 40' (DRC-2; 40'; concentration 2.5): 2.6%
- % inhibition Apol 40' (DRC-2; 40'; concentration 5): -11%
- % inhibition Apol 40' (DRC-2; 40'; concentration 10): 9%
- % inhibition Apol 40' (DRC-2; 40'; concentration 20): 12%
- % inhibition Apol 40' (DRC-2; 40'; concentration 40): 39%
- % inhibition Apol 40' (DRC-2; 40'; concentration 80): 41%
- % inhibition ApPOL 90' (DRC-2; 90'; concentration 2.5): -1.1%
- % inhibition ApPOL 90' (DRC-2; 90'; concentration 5): -22%
- % inhibition ApPOL 90' (DRC-2; 90'; concentration 10): 5.68%
- % inhibition ApPOL 90' (DRC-2; 90'; concentration 20): 8%
- % inhibition ApPOL 90' (DRC-2; 90'; concentration 40): 35%
- % inhibition ApPOL 90' (DRC-2; 90'; concentration 80): 36%
- % inhibition apPOL 180' (DRC-2; 180'; concentration 2.5): -5.52%
- % inhibition apPOL 180' (DRC-2; 180'; concentration 5): -102%
- % inhibition apPOL 180' (DRC-2; 180'; concentration 10): -2.72%
- % inhibition apPOL 180' (DRC-2; 180'; concentration 20): -1.34%
- % inhibition apPOL 180' (DRC-2; 180'; concentration 40): 23%
- % inhibition apPOL 180' (DRC-2; 180'; concentration 80): 25%
- DNA Pol (primary screen value of the 186 hits; unit not given; 90 min, 10 µM): 43
- DNA Pol (primary screen value, head "DNA Pol", unit not given; 90 min, 10 µM): 43

SMILES: CCN1C(=O)C(=Cc2cccc(OC)c2O)SC1=S [Molecule 78]
- IC50 [1]: 35 µM

SMILES: CCSc1nnc(NC(=O)Cc2csc(NC(=O)c3cnccn3)n2)s1 [Molecule 79, CCSc1nnc(s1)NC(=O)Cc1csc(n1)NC(=O)c1cnccn1]
- DNA Pol ('DNA Pol'; screening value, unit not given; 90 min, 10 µM): 44
- % inhibition Apo pol 10' (DRC-1; 10'; concentration 2.5): -4.905%
- % inhibition Apo pol 10' (DRC-1; 10'; concentration 5): -2.236%
- % inhibition Apo pol 10' (DRC-1; 10'; concentration 10): 11.7558%
- % inhibition Apo pol 10' (DRC-1; 10'; concentration 20): 21.8429%
- % inhibition Apo pol 10' (DRC-1; 10'; concentration 40): 42.6087%
- % inhibition Apo pol 10' (DRC-1; 10'; concentration 80): 77.5256%
- % inhibition Apol 90' (DRC-1; 90'; concentration 2.5): -9.3965%
- % inhibition Apol 90' (DRC-1; 90'; concentration 5): -9.701%
- % inhibition Apol 90' (DRC-1; 90'; concentration 10): -1.729%
- % inhibition Apol 90' (DRC-1; 90'; concentration 20): 6.401%
- % inhibition Apol 90' (DRC-1; 90'; concentration 40): 23.3518%
- % inhibition Apol 90' (DRC-1; 90'; concentration 80): 61.199%
- % inhibition apPOL 180' (DRC-1; 180'; concentration 2.5): -15.2579%
- % inhibition apPOL 180' (DRC-1; 180'; concentration 5): -16.9778%
- % inhibition apPOL 180' (DRC-1; 180'; concentration 10): -10.4775%
- % inhibition apPOL 180' (DRC-1; 180'; concentration 20): -5.476%
- % inhibition apPOL 180' (DRC-1; 180'; concentration 40): 8.736%
- % inhibition apPOL 180' (DRC-1; 180'; concentration 80): 42.542%
- % inhibition Apo pol 5' (DRC-2, 5', concentration 2.5): 1.36%
- % inhibition Apo pol 5' (DRC-2, 5', concentration 5): 13%
- % inhibition Apo pol 5' (DRC-2, 5', concentration 10): 30%
- % inhibition Apo pol 5' (DRC-2, 5', concentration 20): 43%
- % inhibition Apo pol 5' (DRC-2, 5', concentration 40): 55%
- % inhibition Apo pol 5' (DRC-2, 5', concentration 80): 62%
- % inhibition Apol 40' (DRC-2, 40', concentration 2.5): -2.42%
- % inhibition Apol 40' (DRC-2, 40', concentration 5): 7%
- % inhibition Apol 40' (DRC-2, 40', concentration 10): 25%
- % inhibition Apol 40' (DRC-2, 40', concentration 20): 40%
- % inhibition Apol 40' (DRC-2, 40', concentration 40): 62%
- % inhibition Apol 40' (DRC-2, 40', concentration 80): 76%
- % inhibition ApPOL 90' (DRC-2, 90', concentration 2.5): -4.46%
- % inhibition ApPOL 90' (DRC-2, 90', concentration 5): 5%
- % inhibition ApPOL 90' (DRC-2, 90', concentration 10): 22%
- % inhibition ApPOL 90' (DRC-2, 90', concentration 20): 35%
- % inhibition ApPOL 90' (DRC-2, 90', concentration 40): 62%
- % inhibition ApPOL 90' (DRC-2, 90', concentration 80): 79%
- % inhibition apPOL 180' (DRC-2, 180', concentration 2.5): -6%
- % inhibition apPOL 180' (DRC-2, 180', concentration 5): 1.68%
- % inhibition apPOL 180' (DRC-2, 180', concentration 10): 14%
- % inhibition apPOL 180' (DRC-2, 180', concentration 20): 26%
- % inhibition apPOL 180' (DRC-2, 180', concentration 40): 59%
- % inhibition apPOL 180' (DRC-2, 180', concentration 80): 81%
- % inhibition Apol 40' (conc 40 (unit not given); 40'; DRC-2): 62%
- % inhibition ApPOL 90' (conc 40 (unit not given); 90'; DRC-2): 62%
- % inhibition Apo pol 5' (conc 80 (unit not given); 5'; DRC-2): 62%
- DNA Pol (primary screen hit value, DNA Pol (186 hits); 90 min, 10 µM): 44

SMILES: CCSc1nnc(NC(=O)Cc2csc(NC(=O)c3cnccn3)n2)s1 [Molecule 79]
- IC50 [1]: 46.7 µM

SMILES: Oc1ccc(N=Nc2ccccc2)c(O)c1 [Molecule 80, Oc1ccc(c(c1)O)N=Nc1ccccc1]
- DNA Pol (186 hits, value of the hit list (primary screen); unit not given; 90 min, 10 µM): 72
- % inhibition Apo pol 10' (DRC-1; 10'; concentration 2.5): 10.9556%
- % inhibition Apo pol 10' (DRC-1; 10'; concentration 5): 10.5427%
- % inhibition Apo pol 10' (DRC-1; 10'; concentration 10): 21.5612%
- % inhibition Apo pol 10' (DRC-1; 10'; concentration 20): 33.6555%
- % inhibition Apo pol 10' (DRC-1; 10'; concentration 40): 51.3856%
- % inhibition Apo pol 10' (DRC-1; 10'; concentration 80): 71.5271%
- % inhibition Apol 90' (DRC-1; 90'; concentration 2.5): -0.1987%
- % inhibition Apol 90' (DRC-1; 90'; concentration 5): 0.4517%
- % inhibition Apol 90' (DRC-1; 90'; concentration 10): 6.956%
- % inhibition Apol 90' (DRC-1; 90'; concentration 20): 15.0719%
- % inhibition Apol 90' (DRC-1; 90'; concentration 40): 30.4244%
- % inhibition Apol 90' (DRC-1; 90'; concentration 80): 54.1765%
- % inhibition apPOL 180' (DRC-1; 180'; concentration 2.5): -4.521%
- % inhibition apPOL 180' (DRC-1; 180'; concentration 5): -7.381%
- % inhibition apPOL 180' (DRC-1; 180'; concentration 10): -2.239%
- % inhibition apPOL 180' (DRC-1; 180'; concentration 20): 3.639%
- % inhibition apPOL 180' (DRC-1; 180'; concentration 40): 16.6852%
- % inhibition apPOL 180' (DRC-1; 180'; concentration 80): 39.1474%
- % inhibition Apo pol 5' (DRC-2, 5', concentration 2.5): 1.77%
- % inhibition Apo pol 5' (DRC-2, 5', concentration 5): 5.48%
- % inhibition Apo pol 5' (DRC-2, 5', concentration 10): 24%
- % inhibition Apo pol 5' (DRC-2, 5', concentration 20): 31%
- % inhibition Apo pol 5' (DRC-2, 5', concentration 40): 44%
- % inhibition Apo pol 5' (DRC-2, 5', concentration 80): 51%
- % inhibition Apol 40' (DRC-2, 40', concentration 2.5): 1.06%
- % inhibition Apol 40' (DRC-2, 40', concentration 5): 2.17%
- % inhibition Apol 40' (DRC-2, 40', concentration 10): 23%
- % inhibition Apol 40' (DRC-2, 40', concentration 20): 29%
- % inhibition Apol 40' (DRC-2, 40', concentration 40): 43%
- % inhibition Apol 40' (DRC-2, 40', concentration 80): 54%
- % inhibition ApPOL 90' (DRC-2, 90', concentration 2.5): -1%
- % inhibition ApPOL 90' (DRC-2, 90', concentration 5): -0.664%
- % inhibition ApPOL 90' (DRC-2, 90', concentration 10): 21%
- % inhibition ApPOL 90' (DRC-2, 90', concentration 20): 24%
- % inhibition ApPOL 90' (DRC-2, 90', concentration 40): 38%
- % inhibition ApPOL 90' (DRC-2, 90', concentration 80): 52%
- % inhibition apPOL 180' (DRC-2, 180', concentration 2.5): -4%
- % inhibition apPOL 180' (DRC-2, 180', concentration 5): -4.42%
- % inhibition apPOL 180' (DRC-2, 180', concentration 10): 16%
- % inhibition apPOL 180' (DRC-2, 180', concentration 20): 15%
- % inhibition apPOL 180' (DRC-2, 180', concentration 40): 25%
- % inhibition apPOL 180' (DRC-2, 180', concentration 80): 41%
- % inhibition Apo pol 5' (DRC-2; 5'; concentration 10): 24%
- % inhibition ApPOL 90' (DRC-2; 90'; concentration 20): 24%
- DNA Pol (primary screen value, 'DNA Pol' only; 90 min, 10 µM): 72

SMILES: Oc1ccc(N=Nc2ccccc2)c(O)c1 [Molecule 80]
- IC50 [1]: 37.5 µM

SMILES: CC(C)(C)OC(=O)COc1ccc2cc(-c3ccccc3)c(=O)oc2c1 [Molecule 81]
- IC50 [1]: 35 µM
